Measurements published in US9999611B2, “SIRT 1 activator including syringaresinol” (AMOREPACIFIC CORPORATION, priority 2011, dated 2018).

Legend:
[1] = system: SIRT1; assay: SIRT1 expression promoting effect in aged human retinal epithelial cells (western blotting); type: cell-based; conditions: aged ARPE-19 cells (5 PDL to 15 PDL), FIG. 14
Experimental: The SIRT1 gene expression promoting effect of syringaresinol in aged human retinal epithelial cells was evaluated as follows. Human retinal […] cell line ARPE-19 was purchased from ATCC (Manassa, Va., USA) and cultured in a 5% CO2 incubator using DMEM (Gibco BRL, Grand Island, N.Y., USA) containing 10% bovine serum, 1% penicillin/streptomycin, amphotericin B and an antifungal agent until 70% confluency. […] The population doubling level (PDL) was calculated according to the following equation for each generation until the cell growth was stopped. The PDL value is higher in aged cells. PDL=(Log10Y−Log10X)/Log102 Y: number of cells at the end of the generation X: number of cells at the beginning of the generation 5 PDL cells were treated with syringaresinol dissolved in DMSO at a concentration of 50 or 100 μM every other day while inducing aging to 15 PDL cells. The cells of a negative control were treated with DMSO corresponding to 1/1000 of the volume of the culture medium. […] The isolated protein was quantitated using the BCA assay kit (Pierce, Rockford, USA) and 30 μg was subjected to western blotting using the iBlot Dry blotting system (Invitrogen, Carlsbad, Calif., USA). The SIRT1 protein expression level was measured using anti-SIRT1 antibody (Santa Cruz Biotechnology, Santa Cruz, Calif., USA).

[2] = system: ADD1/SREBP1c, ACC, FAS; assay: Expression of fatty acid synthesis-related genes (qRT-PCR); type: cell-based, human; conditions: 50 μM, vs DMSO control
Experimental: (§1) Human adipocytes, hepatocytes and myocytes were treated with 50 μM syringaresinol and washed with PBS in substantially the same manner as in Test Example 3. RNA was extracted from the cells and cDNA was synthesized therefrom. The change in expression pattern of fatty acid synthesis-related genes such as ADD1/SREBP1c, ACC, FAS, etc. and fatty acid oxidation-related genes such as ACO, CPT1, mCAD, etc. was measured by qRT-PCR.

[3] = system: ACO, CPT1, mCAD; assay: Expression of fatty acid oxidation-related genes (qRT-PCR); type: cell-based, human; conditions: 50 μM, vs DMSO control
Experimental: as §1

[4] = system: SIRT1; assay: SIRT1 expression recovering effect in gingival fibroblasts treated with cigarette smoke condensate (PCR); type: cell-based, human; conditions: cigarette smoke condensate 100 μg/mL, syringaresinol 50 or 100 μg/mL, 2 days, FIG. 2
Experimental: Experiment was conducted to evaluate whether syringaresinol can recover SIRT1 expression that has been decreased due to smoking in gingival fibroblasts.
Gingival fibroblasts were obtained from tissue biopsies of patients having healthy gingiva. The tissue biopsy was put in a 15-mL test tube holding Dulbecco's modified Eagle's medium (DMEM, Gibco Co., USA) and blood and impurities were removed by washing 3 times. Then, the tissue biopsy was transferred onto a 100-mm tissue culture dish holding DMEM containing 10% fetal bovine serum (Gibco Co., USA) and 1% antibiotics (penicillin G 10,000 units/mL, amphotericin B 25 μg/mL, Gibco Co., USA) and finely cut to 1 mm^2 using a No. 15 blade. Then, 5-6 pieces were uniformly distributed on a 60-mm culture dish. After incubation for about 30 minutes in a 5% CO2 incubator at 37° C. and 100% humidity such that the tissue was uniformly attached on the bottom of the culture dish, 3 mL of DMEM containing 10% fetal bovine serum and 1% antibiotics was added. The culture medium was exchanged with 2-3 day intervals until a single layer of cells was formed. […]
The gingival fibroblasts subcultured 5-6 times were seeded onto a 24-well plate, with 1×10^4 cells per well. […] The expression pattern of the SIRT1 and GAPDH genes was monitored using the synthesized cDNA and predesigned primers and probes (Applied Biosystems; SIRT1, Hs01009006_m1; GAPDH, Hs99999905_m1). […]

[5] = system: human PBMCs; assay: Reactive oxygen species production inhibiting effect in LPS-treated human PBMCs (H2-DCFDA); type: cell-based; conditions: human PBMCs pretreated with 20, 50 or 100 μM, then 10 ng/mL LPS; compared to cells treated only with LPS; FIG. 18
Experimental: After pretreating human PBMCs with 20, 50 or 100 μM syringaresinol in substantially the same manner as in Test Example 10, followed by washing with PBS, inflammatory response was induced by treating with 10 ng/mL lipopolysaccharide (LPS). After treating the cells with H2-DCFDA (Invitrogen), which is a fluorescent substance capable of detecting reactive oxygen species, the amount of fluorescent substance was measured using a multiplate reader (Infinite M200; Tecan, Mannedorf, Switzerland).

In the case of COc1cc(C2OCC3C(c4cc(OC)c(O)c(OC)c4)OCC23)cc(OC)c1O (stereo not shown) [syringaresinol], the SIRT1 protein expression ([1]; 100 μM every other day) is reported as “increased SIRT1 expression to a level comparable to that of young retinal epithelial cells”, the SIRT1 protein expression ([1]; 50 or 100 μM every other day) is reported as “increased SIRT1 expression, which had been decreased in aged retinal cells, in a concentration-dependent manner” and the “expression of fatty acid synthesis-inducing genes” value ([2]; human adipocytes, FIG. 5) is reported as “suppressed the expression of fatty acid synthesis-inducing genes”. For the same molecule, the “expression of fatty acid synthesis-inducing genes” value ([2]; human hepatocytes, FIG. 6) was “suppressed the expression of fatty acid synthesis-inducing genes”, the “expression of fatty acid synthesis-inducing genes” value ([2]; human myocytes, FIG. 7) was “suppressed the expression of fatty acid synthesis-inducing genes” and the “expression of fatty acid oxidation promoting genes” value ([3]; human adipocytes, FIG. 8) was “increased the expression of fatty acid oxidation promoting genes”. The “expression of fatty acid oxidation promoting genes” value ([3]; human hepatocytes, FIG. 9) was “increased the expression of fatty acid oxidation promoting genes”, the “expression of fatty acid oxidation promoting genes” value ([3]; human myocytes, FIG. 10) was “increased the expression of fatty acid oxidation promoting genes” and the SIRT1 expression [4] was “increased SIRT1 expression in gingival fibroblasts, which had been decreased due to smoking, in a concentration-dependent manner”. The “decreased reactive oxygen species production” value [5] was “about 60%”.
